Read-outs that look alike come from different tables or passages of the source.
Legend:
[1] = biological target: T1, SARS-CoV-2 NSP3 macrodomain (Mac1) (Severe acute respiratory syndrome coronavirus 2, UniProt P0DTD1); test: biochemical; assay type: binding; conditions: for IC50: dose-response, read-out: IC50; for Average % competition: Single dose, concentration 200 μM
[2] = biological target: T1, SARS-CoV-2 NSP3 macrodomain (Mac1); assay type: binding; conditions: for Number of isomers bound: ligand modeling, Mac1 crystal soak; for Isomers modeled: stereoisomer(s) modeled as bound, residues 201/202/203; for PanDDA run, TFA/DMSO background map: 1-BDC / PanDDA run, TFA/DMSO background map: Hit: crystal soak 10 mM
[3] = SARS CoV-2 macrodomain HTRF assay
[4] = SARS CoV-2 macrodomain HTRF assay, single dose concentration 200 μM, read-out: Average % competition
[5] = compound at 200 μM, mean of three to four technical replicates, read-out: % competition at 200 μM (preliminary HTRF screen)

SMILES	Ki [1, 3]	Ligand efficiency (binding enery per heavy atom) [1, 3]	IC50 [1, 3]	Number of isomers bound [2]	Isomers modeled [2]	inhibition at 200 µM [1, 4]	inhibition at 200 µM [1, 5]	PanDDA run, TFA/DMSO background map: 1-BDC [2]	PanDDA run, TFA/DMSO background map: Hit [2]	Average % competition [1]
OC[C@@H]1C[C@@H]2CCC[C@@H]2N1c1ncnc2[nH]ccc12 [AVI-3720]	26 µM	0.33	28 µM	1	SSS	–	–	–	–	–
CCC(CC)(CO)Nc1ncnc2[nH]ccc12 [AVI-3695]	37 µM	0.36	40 µM	1	–	–	–	–	–	–
O=C(O)C(F)(F)F.OCC12CC(CN1c1ncnc3[nH]ccc13)C2 [AVI-3681]	–	–	–	1	–	54%	54%	0.12	TRUE	–
CO[C@@H]1C[C@H](CO)N(c2ncnc3[nH]ccc23)C1 [AVI-3656]	–	–	–	1	–	41%	41%	–	–	–
OC[C@@H]1C[C@H](F)CN1c1ncnc2[nH]ccc12 [AVI-609]	–	–	–	1	–	52%	52%	–	–	–
OCC(Nc1ncnc2[nH]ccc12)C1CCc2ccccc21 (centres unmarked) [AVI-3693]	–	–	–	2	RR,SR	–	78%	–	–	78%
O=C(O)C(F)(F)F.OCC1(Nc2ncnc3[nH]ccc23)CC1 [AVI-3688]	–	–	–	1	–	–	72%	0.17	TRUE	72%
